Test results: PubChem BioAssay (NCI)
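Growth conditions: 96-well plates. Treatment: test compound, 48 hours, 5 concentrations. Analysis: linear interpolation between bracketing concentrations; unreached endpoints set to highest concentration. The concentration for 50% growth inhibition is given as GI50. TGI: total growth inhibition.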

Tests used:
Assay in all cases: NCI tumour cell line growth inhibition, 48 h
PC-3 prostate = tested on: PC-3 prostate
HT29 colon = tested on: HT29 colon
SN12C renal = tested on: SN12C renal
HS 578T breast = tested on: HS 578T breast
MCF7 breast = tested on: MCF7 breast
786-0 renal = tested on: 786-0 renal
SK-OV-3 ovarian = tested on: SK-OV-3 ovarian
HCC-2998 colon = tested on: HCC-2998 colon
NCI-H226 lung = tested on: NCI-H226 lung
HOP-62 NSCLC = tested on: HOP-62 NSCLC

Row | SMILES | GI50 (PC-3 prostate) [µM] | TGI (PC-3 prostate) [µM] | GI50 (HT29 colon) [µM] | TGI (HT29 colon) [µM] | GI50 (SN12C renal) [µM] | TGI (SN12C renal) [µM] | GI50 (HS 578T breast) [µM] | TGI (HS 578T breast) [µM] | GI50 (MCF7 breast) [µM] | TGI (MCF7 breast) [µM] | GI50 (786-0 renal) [µM] | TGI (786-0 renal) [µM] | GI50 (SK-OV-3 ovarian) [µM] | TGI (SK-OV-3 ovarian) [µM] | GI50 (HCC-2998 colon) [µM] | TGI (HCC-2998 colon) [µM] | GI50 (NCI-H226 lung) [µM] | TGI (NCI-H226 lung) [µM] | GI50 (HOP-62 NSCLC) [µM] | TGI (HOP-62 NSCLC) [µM]
1 | COc1c/c(=C2\C=c3ccccc3=N2)[nH]/c1=C\c1[nH]c(C)cc1C | 0.12 | 31.3 | < 0.01 | > 100 | 0.0782 | 59.5 | 0.0131 | 0.433 | 0.0464 | > 100 | 0.048 | 4.21 | 1.54 | > 88.7 | 0.185 | 33.7 | 16.5 | > 100 | 0.468 | 6.87
2 | Cc1c(-c2cnccn2)ssc1=S | – | > 100 | – | > 100 | – | > 100 | – | 91.8 | – | > 100 | – | > 77.4 | – | 93 | – | > 100 | – | > 100 | – | 92
3 | COc1cc2c(cc1OC(C)C)[C@H](c1ccc(Cl)cc1)N(c1ccc(N(C)CC3CCC(N4CCN(C)C(=O)C4)CC3)cc1)C(=O)C2 (some centres undefined) | 1.98 | 5.51 | 2.7 | 7.79 | 2.95 | 9.15 | 3.48 | 13.1 | 0.271 | 3.61 | 2.85 | 8.73 | 4.05 | 8.86 | 2.59 | 7.07 | 0.311 | 1.7 | 4.19 | 9.64
4 | COc1ccc(Nc2nc3cc(N)cc(N)c3nc2-c2ccccc2)cc1 | 20.9 | 47.6 | – | 42.7 | 20.6 | 57.4 | 14.3 | 46.5 | 14.9 | 28.1 | 16 | 31.2 | 32.8 | 97.5 | 28.1 | > 100 | 23.8 | 98.4 | 27.6 | > 100
5 | Cc1onc(-c2ccccc2)c1C(=O)N/N=C/c1cc(Cl)cc(Cl)c1O | 3.93 | 32.6 | 8.63 | 58.7 | 4.58 | 60.5 | 17.8 | > 100 | 3.18 | > 100 | 5.01 | 50.7 | 7.82 | 50.7 | 4.13 | 18.2 | 8.47 | 72.7 | 6.04 | 55.7
6 | OCC1C(OCc2ccccc2)C(OCc2ccccc2)C(OCc2ccccc2)CN1Cc1ccccc1 (centres undefined) | – | 88.1 | – | 34.6 | – | 39.6 | – | > 100 | – | 43.9 | – | > 100 | – | > 100 | – | > 100 | – | > 100 | – | > 100
7 | Cc1ccc(O)c(NC(=O)c2cccc(Nc3ccnc(C(F)(F)F)c3)c2)c1 | 11.4 | 38.5 | 15.7 | 33.4 | 5.81 | 37.3 | 16.1 | 40.3 | 4.21 | 26.5 | 8.22 | 51.5 | 16.6 | 62 | 10.5 | 23.2 | 0.894 | 23.4 | 11.6 | 28.9
8 | COc1ccccc1Nc1cc(O)c2c(=O)cc(-c3ccccc3)oc2c1 | 5.13 | 41.6 | 3.64 | > 100 | 3.5 | 17.6 | 3.61 | 32.6 | 1.63 | > 100 | 5.15 | 27 | 3.57 | 17.9 | 6.07 | > 100 | 4.38 | 28.8 | 3.55 | > 100
9 | CC(C)C[C@H](NC(=O)CNC(=O)c1cc(Cl)ccc1Cl)B(O)O | 0.0486 | 0.841 | < 0.0155 | 0.0616 | 0.0442 | 0.39 | 0.0489 | > 50.4 | < 0.0196 | > 52.4 | 0.0278 | 0.814 | 0.0997 | 8.26 | 0.0199 | 0.0436 | 0.416 | 5.09 | 0.0472 | 0.429
10 | Oc1c(Cl)cc(Cl)c(Cl)c1CNCCNCc1c(O)c(Cl)cc(Cl)c1Cl | 1.92 | 11.1 | 5.83 | > 50 | 2.02 | 17.9 | 5.32 | 27.9 | 1.12 | 14.5 | 1.48 | 8.43 | 1.48 | 7.7 | 2.69 | > 50 | 4.1 | 18.1 | 0.894 | 8.3
11 | CCc1nc(N)nc(N)c1-c1ccc(Cl)c([N+](=O)[O-])c1 | – | > 100 | – | > 100 | – | > 100 | – | > 100 | – | > 89.7 | – | > 100 | – | > 100 | – | > 100 | – | > 100 | – | > 95.5
12 | COc1ccc(/C=C\c2cc(OC)c(OC)c(OC)c2)cc1OCC(=O)Nc1nc2ccc(F)cc2s1 | 6.74 | > 100 | 9.63 | > 100 | 4.61 | > 100 | > 100 | > 100 | 2.3 | > 100 | 7.12 | > 100 | 8 | > 100 | > 100 | > 100 | 5.6 | > 100 | 5.7 | > 100
